Assay results reported in patent US20040103451A1, “Abscisic acid 8'-and 7'-hydroxylase genes and related sequences from plants” (priority 2003, published 2004).

How the values were obtained:
pJK6-29 mRNA = format: cell-based, corn
Description: Total RNA isolated from non-ABA-induced and ABA-induced (9 hr at […] (+)-ABA) BMS corn suspension was probed with radiolabeled pJK6-29. […] Further Northern blot analysis was carried out. In this experiment, the time course of gene expression was compared with the appearance of ABA 8'-hydroxylase activity. ABA 8'-hydroxylase activity was determined by in vitro assay (see Krochko J. E., et al., 1998, Plant Physiol 118: 849-860) with isolated microsomes isolated from BMS corn suspension cells at defined periods after the addition of 200 μM (+)-ABA. Enzyme activity was assayed at 0 (control), 3, 6, 9, 12, 16, 20.5, 25.5 and 28.5 hours after the addition of (+)-ABA. Total RNA was extracted from duplicate tissue samples and expression of the P450 clone, pJK6-29, was determined by Northern blot analysis. The time-course of mRNA induction for pJK6-29 is consistent with the appearance of ABA 8'-hydroxylase activity (FIG. 5).

CYP72A7 = assay: biotransformation of (+)-ABA by yeast expressing CYP72A7, LC/MS/MS of culture media; format: cell-based, Arabidopsis thaliana
Description: FIG. 6. Heterologous expression of an Arabidopsis P450 ABA 7′-hydroxylase activity in yeast. The CYP72A7 cDNA from Arabidopsis thaliana was inserted into the pYeDP60 vector, transformed into the WAT11 yeast strain (but not the WAT21 yeast strain) and analyzed for the ability to metabolize (+)-ABA. The biotransformation of (+)-ABA to 7′-hydroxyABA was assessed by High Performance Liquid Chromatography—Mass Spectrometry. (HPLC/MS/MS) 7′-hydroxyABA was excreted into the media. Measured activity was limited by access of enzyme to the substrate (ABA).
For yeast expression, the cDNAs were transferred into the expression vector pYeDP60 (Pompon D., et al., 1996, Method Enzymol 272: 51-64), and purified recombinant plasmid was subsequently transformed into WAT 11 and WAT 21 yeast strains over-expressing the Arabidopsis cytochrome P450 reductases, CTR1 and CTR2, respectively (Pompon et al., ibid). […]
For expression analysis the cultures were grown for two days on SC minus URA agar plates at 30° C. […] One to 10 mls of the sample was loaded onto an Oasis HLB column (Waters) to purify ABA and ABA-metabolites and the resulting eluant was analyzed by LC/MS/MS.

ABA 8′-hydroxylase [1] = settings: cited from earlier work; for inhibition of induction of ABA 8′-hydroxylase: corn suspension cells
ABA 8′-hydroxylase [2] = settings: microsomal enzyme, BMS corn suspension cells; cited from earlier work

Molecule	inhibition of ABA 8′-hydroxylase (ABA 8′-hydroxylase [2])	inhibition of induction of ABA 8′-hydroxylase (ABA 8′-hydroxylase [1])	other results
CC1=CC(=O)CC(C)(C)[C@@]1(O)/C=C/C(C)=C\C(=O)O [(+)-ABA, S-(+)-abscisic acid]	–	–	regulation of pJK6-29 P450 mRNA expression (pJK6-29 mRNA): upregulated; ABA hydroxylase activity (CYP72A7; WAT21 yeast strain): did not support any ABA hydroxylase activity; ABA 7′-hydroxylase activity (conversion to 7′-hydroxyABA) (CYP72A7; pYeDP60.Ath30-2 in WAT11 yeast strain, (+)-ABA 20 μM to 50 μM, 24 hours): ABA 7′-hydroxylase activity was demonstrated; time of peak ABA 8′-hydroxylase activity after addition of (+)-ABA (ABA 8′-hydroxylase [1]; BMS corn suspension culture medium): 16 h; induction of ABA 8′-hydroxylase (ABA 8′-hydroxylase [1]; maize BMS suspension cultured cells): induced
[C-]#[O+] [CO]	inhibited	–	–
Nc1ncnc2c1ncn2[C@@H]1O[C@H](CO)C[C@H]1O [cordecypin]	–	inhibited	–
C[C@@H]1C[C@@H]([C@H](O)CC2CC(=O)NC(=O)C2)C(=O)[C@@H](C)C1 [cycloheximide]	–	inhibited	–
Clc1ccc(N2N=N[C@@H]3[C@@H]4C[C@@H]([C@H]5N=N[C@@H]45)[C@@H]32)cc1 [tetcyclacis]	inhibited	–	–
oxidized cytochrome c: inhibitor of ABA 8′-hydroxylase	inhibited	–	–
